Measurements as given in PubChem BioAssay AID1259407 (Chemical Carcinogenesis Research Information System (CCRIS), 2018).
Activity calls are given as the source filed them. No rule for the calls is given here.

Test system: CCRIS mutagenicity, Ames/micronucleus/aberration tests
Assay: CCRIS mutagenicity studies
[1] = Test System: AMES SALMONELLA TYPHIMURIUM, Strain/Indicator: TA98, Metabolic Activation: NONE, Method: STANDARD PLATE
[2] = Test System: AMES SALMONELLA TYPHIMURIUM, Strain/Indicator: TA100, Metabolic Activation: NONE, Method: STANDARD PLATE
[3] = Test System: AMES SALMONELLA TYPHIMURIUM, Strain/Indicator: TA102, Metabolic Activation: NONE, Method: STANDARD PLATE

Cc1ccc2ccc3cc4ccccc4cc3c2c1
mutagenic call (Test System: AMES SALMONELLA TYPHIMURIUM, Strain/Indicator: TA100, Metabolic Activation: RAT, INTACT HEPATOCYTES, AROCLOR 1254, Method: PREINCUBATION): inactive; negative
mutagenic call (Test System: AMES SALMONELLA TYPHIMURIUM, Strain/Indicator: TA100, Metabolic Activation: RAT, NADPH-FORTIFIED HOMOGENIZED HEPATOCYTES, AROCLOR 1254, Method: PREINCUBATION): active; positive
mutagenic call (Test System: AMES SALMONELLA TYPHIMURIUM, Strain/Indicator: TA100, Metabolic Activation: RAT, SONICATED HEPATOCYTES, AROCLOR 1254, Method: PREINCUBATION): active; positive

O=C1NCNC(=O)N1
mutagenic call (Test System: AMES SALMONELLA TYPHIMURIUM, Strain/Indicator: TA98, Metabolic Activation: MAIZE SEEDLING, S-14, Method: PREINCUBATION): active; positive
mutagenic call (Test System: AMES SALMONELLA TYPHIMURIUM, Strain/Indicator: TA98, Metabolic Activation: MOUSE, LIVER, S-9, Method: PREINCUBATION): active; positive
mutagenic call (Test System: AMES SALMONELLA TYPHIMURIUM, Strain/Indicator: TA98, Metabolic Activation: NONE, Method: PREINCUBATION): inactive; negative
mutagenic call (Test System: AMES SALMONELLA TYPHIMURIUM, Strain/Indicator: TA100, Metabolic Activation: MAIZE SEEDLING, S-14, Method: PREINCUBATION): active; positive
mutagenic call (Test System: AMES SALMONELLA TYPHIMURIUM, Strain/Indicator: TA100, Metabolic Activation: MOUSE, LIVER, S-9, Method: PREINCUBATION): inactive; negative
mutagenic call (Test System: AMES SALMONELLA TYPHIMURIUM, Strain/Indicator: TA100, Metabolic Activation: NONE, Method: PREINCUBATION): inactive; negative
mutagenic call (Test System: AMES SALMONELLA TYPHIMURIUM, Strain/Indicator: TA1535, Metabolic Activation: NONE, Method: PREINCUBATION): inactive; negative
mutagenic call (Test System: AMES SALMONELLA TYPHIMURIUM, Strain/Indicator: TA1537, Metabolic Activation: NONE, Method: PREINCUBATION): inactive; negative
mutagenic call (Test System: AMES SALMONELLA TYPHIMURIUM, Strain/Indicator: TA1538, Metabolic Activation: NONE, Method: PREINCUBATION): inactive; negative

CNNc1ccn([C@@H]2O[C@H](CO)[C@@H](O)[C@H]2O)c(=O)n1
mutagenic call (Test System: CHINESE HAMSTER V-79, Strain/Indicator: V-79/6-THIOGUANINE, Metabolic Activation: NONE, Method: REPLATING): active; positive

COc1ccc(CN(CC[N+](C)(C)[O-])c2ccccn2)cc1
mutagenic call (Test System: AMES SALMONELLA TYPHIMURIUM, Strain/Indicator: TA97, Metabolic Activation: NONE, Method: STANDARD PLATE): inactive; negative
mutagenic call (Test System: AMES SALMONELLA TYPHIMURIUM, Strain/Indicator: TA97, Metabolic Activation: RAT, LIVER, S-9, AROCLOR 1254, Method: STANDARD PLATE): inactive; negative
mutagenic call [1]: inactive; negative
mutagenic call (Test System: AMES SALMONELLA TYPHIMURIUM, Strain/Indicator: TA98, Metabolic Activation: RAT, LIVER, S-9, AROCLOR 1254, Method: STANDARD PLATE): inactive; negative
mutagenic call [2]: inactive; negative
mutagenic call (Test System: AMES SALMONELLA TYPHIMURIUM, Strain/Indicator: TA100, Metabolic Activation: RAT, LIVER, S-9, AROCLOR 1254, Method: STANDARD PLATE): inactive; negative
mutagenic call [3]: inactive; negative
mutagenic call (Test System: AMES SALMONELLA TYPHIMURIUM, Strain/Indicator: TA102, Metabolic Activation: RAT, LIVER, S-9, AROCLOR 1254, Method: STANDARD PLATE): inactive; negative

CCCCCC(C)=O
mutagenic call (Test System: CHINESE HAMSTER V-79, Strain/Indicator: V-79 (HPRT)/6-THIOGUANINE, Metabolic Activation: NONE, Method: STANDARD PLATE): inactive; negative
mutagenic call (Test System: CHINESE HAMSTER V-79, Strain/Indicator: V-79 (HPRT)/6-THIOGUANINE, Metabolic Activation: RAT LIVER S-9, Method: STANDARD PLATE): inactive; negative

C/C=C/C=C/CCCCCCCOC(C)=O
mutagenic call [1]: inactive; negative
mutagenic call (Test System: AMES SALMONELLA TYPHIMURIUM, Strain/Indicator: TA98, Metabolic Activation: RAT, LIVER, S-9, Method: STANDARD PLATE): inactive; negative
mutagenic call [2]: inactive; negative
mutagenic call (Test System: AMES SALMONELLA TYPHIMURIUM, Strain/Indicator: TA100, Metabolic Activation: RAT, LIVER, S-9, Method: STANDARD PLATE): inactive; negative
mutagenic call [3]: inactive; negative
mutagenic call (Test System: AMES SALMONELLA TYPHIMURIUM, Strain/Indicator: TA102, Metabolic Activation: RAT, LIVER, S-9, Method: STANDARD PLATE): inactive; negative
